Each compound was assayed against T1, rat NaPi-2b (Rattus norvegicus, UniProt Q9JJ09) (assay: Sodium-dependent phosphate uptake of Xenopus oocytes which expressed NaPi-2b (32P)). Details: Xenopus oocytes expressing rat NaPi-2b, 32P radioactive phosphorus; read-out: IC50 (phosphate uptake inhibitory activity).
T1 construct: expressed in transfected cells; host or cells: Xenopus oocytes injected with cRNA
T1 sequence (Q9JJ09 1-695): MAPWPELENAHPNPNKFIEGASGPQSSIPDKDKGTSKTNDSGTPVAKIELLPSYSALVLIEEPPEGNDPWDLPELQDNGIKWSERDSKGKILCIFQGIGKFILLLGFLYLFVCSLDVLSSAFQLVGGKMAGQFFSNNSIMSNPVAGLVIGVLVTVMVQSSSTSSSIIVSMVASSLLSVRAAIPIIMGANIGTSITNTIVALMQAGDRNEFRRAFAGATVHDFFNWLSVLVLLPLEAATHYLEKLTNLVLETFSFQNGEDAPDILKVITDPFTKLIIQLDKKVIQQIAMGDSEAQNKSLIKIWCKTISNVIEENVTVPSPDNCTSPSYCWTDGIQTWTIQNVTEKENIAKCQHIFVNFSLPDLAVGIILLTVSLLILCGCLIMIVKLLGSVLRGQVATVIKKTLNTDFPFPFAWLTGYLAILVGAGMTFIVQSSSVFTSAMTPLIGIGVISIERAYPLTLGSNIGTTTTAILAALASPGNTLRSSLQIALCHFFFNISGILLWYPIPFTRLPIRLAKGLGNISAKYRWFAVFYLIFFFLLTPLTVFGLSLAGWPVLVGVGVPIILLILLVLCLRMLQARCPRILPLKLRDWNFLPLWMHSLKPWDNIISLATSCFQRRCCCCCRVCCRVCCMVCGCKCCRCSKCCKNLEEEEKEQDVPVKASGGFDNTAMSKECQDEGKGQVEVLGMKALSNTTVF
Assay type: cell-based
How it was run: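 Steps: rat NaPi-2b cDNA cloned from small intestine; cRNA made and injected into oocytes; 2-day expression; 32P phosphate uptake with compound; % inhibition at 300/100 μM taken from one curve.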
An IC50 of 1.12 µM was found for `O=C(Nc1ccc(Br)cc1C(=O)N/N=C/c1ccc(Cl)c(C(F)(F)F)c1)c1ccc(CNCCCN(CCO)CCO)cc1` [Compound 302, 4-({3-[Bis-(2-hydroxy-ethyl)-amino]-propylamino}-methyl)-N-[4-bromo-2-(4-chloro-3-trifluoromethyl-benzylidene-hydrazinocarbonyl)-phenyl]-benzamide] in this work. An IC50 of 1.13 µM was found for `Cc1ccc(/C=N/NC(=O)c2cc(Br)ccc2NC(=O)c2ccc(CN(CC(C)O)CC(C)O)cc2)cc1C` (stereo not drawn) [Compound 303, 4-{[Bis-(2-hydroxy-propyl)-amino]-methyl}-N-[4-bromo-2-(3,4-dimethyl-benzylidene-hydrazinocarbonyl)-phenyl]-benzamide] in this work. An IC50 of 1.23 µM was found for `Cc1ccc(/C=N/NC(=O)c2cc(Br)ccc2NC(=O)c2ccc(CN(CC(C)O)CC(C)O)cc2)cc1` (stereo not drawn) [Compound 304, 4-{[Bis-(2-hydroxy-propyl)-amino]-methyl}-N-[4-bromo-2-(4-methyl-benzylidene-hydrazinocarbonyl)-phenyl]-benzamide] in this work. An IC50 of 2.47 µM was found for `Cc1ccc(/C=N/NC(=O)c2cc(Br)ccc2NC(=O)c2ccc(CN3CCN(CC(=O)N4CCOCC4)CC3)cc2)cc1C` [Compound 305, N-[4-Bromo-2-(3,4-dimethyl-benzylidene-hydrazinocarbonyl)-phenyl]-4-[4-(2-morpholin-4-yl-2-oxo-ethyl)-piperazin-1-ylmethyl]-benzamide] in this work. An IC50 of 2.13 µM was found for `O=C(Nc1ccc(Br)cc1C(=O)N/N=C/c1ccc(Cl)c(C(F)(F)F)c1)c1ccc(CN2CCN(CC(=O)N3CCOCC3)CC2)cc1` [Compound 306, N-[4-Bromo-2-(4-chloro-3-trifluoromethyl-benzylidene-hydrazinocarbonyl)-phenyl]-4-[4-(2-morpholin-4-yl-2-oxo-ethyl)-piperazin-1-ylmethyl]-benzamide] in this work. An IC50 of 41.2 µM was found for `COc1ccc(/C=N/NC(=O)c2cc(Br)ccc2NC(=O)c2ccc(CN3CCN(CC(=O)N4CCOCC4)CC3)cc2)cc1` [Compound 307, N-[4-Bromo-2-(4-methoxy-benzylidene-hydrazinocarbonyl)-phenyl]-4-[4-(2-morpholin-4-yl-2-oxo-ethyl)-piperazin-1-ylmethyl]-benzamide] in this work. An IC50 of 2.76 µM was found for `Cc1ccc(/C=N/NC(=O)c2cc(Br)ccc2NC(=O)c2ccc(CN3CCC(N4CCCCC4)CC3)cc2)cc1C` [Compound 308, 4-[1,4′]Bipiperidinyl-1′-ylmethyl-N-[4-bromo-2-(3,4-dimethyl-benzylidene-hydrazinocarbonyl)-phenyl]-benzamide] in this work. An IC50 of 15.1 µM was found for `Cc1ccc(/C=N/NC(=O)c2cc(Br)ccc2NC(=O)c2ccc(CN3CCC(N4CCCCC4)CC3)cc2)cc1` [Compound 309, 4-[1,4′]Bipiperidinyl-1′-ylmethyl-N-[4-bromo-2-(4-methyl-benzylidene-hydrazinocarbonyl)-phenyl]-benzamide] in this work. An IC50 of 7.82 µM was found for `Cc1cccc(/C=N/NC(=O)c2cc(Br)ccc2NC(=O)c2ccc(CN3CCC(N4CCCCC4)CC3)cc2)c1` [Compound 310, 4-[1,4′]Bipiperidinyl-1′-ylmethyl-N-[4-bromo-2-(3-methyl-benzylidene-hydrazinocarbonyl)-phenyl]-benzamide] in this work. An IC50 of 7.78 µM was found for `O=C(Nc1ccc(Br)cc1C(=O)N/N=C/c1ccc(F)cc1)c1ccc(CN2CCC(N3CCCCC3)CC2)cc1` [Compound 311, 4-[1,4′]Bipiperidinyl-1′-ylmethyl-N-[4-bromo-2-(4-fluoro-benzylidene-hydrazinocarbonyl)-phenyl]-benzamide] in this work. An IC50 of 3.31 µM was found for `O=C(Nc1ccc(Br)cc1C(=O)N/N=C/c1cccc(F)c1)c1ccc(CN2CCC(N3CCCCC3)CC2)cc1` [Compound 312, 4-[1,4′]Bipiperidinyl-1′-ylmethyl-N-[4-bromo-2-(3-fluoro-benzylidene-hydrazinocarbonyl)-phenyl]-benzamide] in this work. An IC50 of 1.24 µM was found for `O=C(Nc1ccc(Br)cc1C(=O)N/N=C/c1ccc(Cl)c(C(F)(F)F)c1)c1ccc(CN2CCC(N3CCCCC3)CC2)cc1` [Compound 313, 4-[1,4′]Bipiperidinyl-1′-ylmethyl-N-[4-bromo-2-(4-chloro-3-trifluoromethyl-benzylidene-hydrazinocarbonyl)-phenyl]-benzamide] in this work. An IC50 of 3.39 µM was found for `COc1ccc(/C=N/NC(=O)c2cc(Br)ccc2NC(=O)c2ccc(CN3CCC(N4CCCCC4)CC3)cc2)cc1` [Compound 314, 4-[1,4′]Bipiperidinyl-1′-ylmethyl-N-[4-bromo-2-(4-methoxy-benzylidene-hydrazinocarbonyl)-phenyl]-benzamide] in this work. An IC50 of 4.71 µM was found for `Cc1ccc(/C=N/NC(=O)c2cc(Br)ccc2NC(=O)c2ccc(CN3CCN(CCO)CC3)cc2)cc1C` [Compound 316, N-[4-Bromo-2-(3,4-dimethyl-benzylidene-hydrazinocarbonyl)-phenyl]-4-[4-(2-hydroxy-ethyl)-piperazin-1-ylmethyl]-benzamide] in this work. An IC50 of 5.02 µM was found for `Cc1ccc(/C=N/NC(=O)c2cc(Br)ccc2NC(=O)c2ccc(CN3CCN(CCO)CC3)cc2)cc1` [Compound 317, N-[4-Bromo-2-(4-methyl-benzylidene-hydrazinocarbonyl)-phenyl]-4-[4-(2-hydroxy-ethyl)-piperazin-1-ylmethyl]-benzamide] in this work. An IC50 of 2.49 µM was found for `Cc1cccc(/C=N/NC(=O)c2cc(Br)ccc2NC(=O)c2ccc(CN3CCN(CCO)CC3)cc2)c1` [Compound 318, N-[4-Bromo-2-(3-methyl-benzylidene-hydrazinocarbonyl)-phenyl]-4-[4-(2-hydroxy-ethyl)-piperazin-1-ylmethyl]-benzamide] in this work. An IC50 of 9.76 µM was found for `O=C(Nc1ccc(Br)cc1C(=O)N/N=C/c1ccc(F)cc1)c1ccc(CN2CCN(CCO)CC2)cc1` [Compound 319, N-[4-Bromo-2-(4-fluoro-benzylidene-hydrazinocarbonyl)-phenyl]-4-[4-(2-hydroxy-ethyl)-piperazin-1-ylmethyl]-benzamide] in this work. An IC50 of 4.09 µM was found for `O=C(Nc1ccc(Br)cc1C(=O)N/N=C/c1cccc(F)c1)c1ccc(CN2CCN(CCO)CC2)cc1` [Compound 320, N-[4-Bromo-2-(3-fluoro-benzylidene-hydrazinocarbonyl)-phenyl]-4-[4-(2-hydroxy-ethyl)-piperazin-1-ylmethyl]-benzamide] in this work. An IC50 of 2.66 µM was found for `O=C(Nc1ccc(Br)cc1C(=O)N/N=C/c1ccc(Cl)c(C(F)(F)F)c1)c1ccc(CN2CCN(CCO)CC2)cc1` [Compound 321, N-[4-Bromo-2-(4-chloro-3-trifluoromethyl-benzylidene-hydrazinocarbonyl)-phenyl]-4-[4-(2-hydroxy-ethyl)-piperazin-1-ylmethyl]-benzamide] in this work. An IC50 of 5.93 µM was found for `COc1ccc(/C=N/NC(=O)c2cc(Br)ccc2NC(=O)c2ccc(CN3CCN(CCO)CC3)cc2)cc1` [Compound 322, N-[4-Bromo-2-(4-methoxy-benzylidene-hydrazinocarbonyl)-phenyl]-4-[4-(2-hydroxy-ethyl)-piperazin-1-ylmethyl]-benzamide] in this work. An IC50 of 4.69 µM was found for `COc1cccc(/C=N/NC(=O)c2cc(Br)ccc2NC(=O)c2ccc(CN3CCN(CCO)CC3)cc2)c1` [Compound 323, N-[4-Bromo-2-(3-methoxy-benzylidene-hydrazinocarbonyl)-phenyl]-4-[4-(2-hydroxy-ethyl)-piperazin-1-ylmethyl]-benzamide] in this work. An IC50 of 4.43 µM was found for `Cc1ccc(/C=N/NC(=O)c2cc(Br)ccc2NC(=O)c2ccc(CN3CCC(O)CC3)cc2)cc1C` [Compound 324, N-[4-Bromo-2-(3,4-dimethyl-benzylidene-hydrazinocarbonyl)-phenyl]-4-(4-hydroxy-piperidin-1-ylmethyl)-benzamide] in this work. An IC50 of 2.56 µM was found for `Cc1ccc(/C=N/NC(=O)c2cc(Br)ccc2NC(=O)c2ccc(CN3CCC(O)CC3)cc2)cc1` [Compound 325, N-[4-Bromo-2-(4-methyl-benzylidene-hydrazinocarbonyl)-phenyl]-4-(4-hydroxy-piperidin-1-ylmethyl)-benzamide] in this work. An IC50 of 2.1 µM was found for `Cc1cccc(/C=N/NC(=O)c2cc(Br)ccc2NC(=O)c2ccc(CN3CCC(O)CC3)cc2)c1` [Compound 326, N-[4-Bromo-2-(3-methyl-benzylidene-hydrazinocarbonyl)-phenyl]-4-(4-hydroxy-piperidin-1-ylmethyl)-benzamide] in this work. An IC50 of 5.12 µM was found for `O=C(Nc1ccc(Br)cc1C(=O)N/N=C/c1ccc(F)cc1)c1ccc(CN2CCC(O)CC2)cc1` [Compound 327, N-[4-Bromo-2-(4-fluoro-benzylidene-hydrazinocarbonyl)-phenyl]-4-(4-hydroxy-piperidin-1-ylmethyl)-benzamide] in this work. An IC50 of 1.15 µM was found for `O=C(Nc1ccc(Br)cc1C(=O)N/N=C/c1cccc(F)c1)c1ccc(CN2CCC(O)CC2)cc1` [Compound 328, N-[4-Bromo-2-(3-fluoro-benzylidene-hydrazinocarbonyl)-phenyl]-4-(4-hydroxy-piperidin-1-ylmethyl)-benzamide] in this work. An IC50 of 5.63 µM was found for `O=C(Nc1ccc(Br)cc1C(=O)N/N=C/c1ccc(Cl)c(C(F)(F)F)c1)c1ccc(CN2CCC(O)CC2)cc1` [Compound 329, N-[4-Bromo-2-(4-chloro-3-trifluoromethyl-benzylidene-hydrazinocarbonyl)-phenyl]-4-(4-hydroxy-piperidin-1-ylmethyl)-benzamide] in this work.

Reference: patent US8134015B2, “Compound inhibiting in vivo phosphorous transport and medicine containing the same” (Kyowa Hakko Kirin Co., Ltd., priority 2003, dated 2012)
